# Laboratory results taken from patent publication US11731977B2, “SGC stimulators” (Cyclerion Therapeutics, Inc., priority 2016, dated 2023).
# Marks after values point to notes of the source that are not given here.
# Tested on: cGMP in mouse brain
# Test: Compound-induced cGMP in mouse brain (Example 9)
# Type: in vivo
# Settings: 30 min after dosing
# Description: Objective. To determine the effect of different doses of a compound of the invention in cGMP response and compound concentration in different areas of the mouse brain (cortex, hippocampus, cerebellum and striatum) and compound concentration in blood
# Protocol. Mice (n=7-8 per experimental condition) were dosed PO with vehicle (1% hydroxypropyl methyl cellulose, 0.2% Tween80, 0.5% methyl cellulose) or 0.3, 1, 3 or 10 mg/Kg of Compound I-1 prepared in vehicle. Thirty minutes after dosing, under isoflurane anesthesia, the mouse was decapitated and the brain was removed and placed into an ice-cold petri dish containing slushy dissection solution (saturated with 95% O2·5% CO2). Using an ice-cold spatula, the brain was transferred to mouse brain matrix with coronal spacing for slicing at 1 mm intervals, as shown in FIG. 5 (not to scale, just a scheme).
# The sliced brain was transferred back into petri dish containing slushy dissection solution with IBMX 0.5 mM (saturated with 95% O2/5% CO2). The dorsal striatum is dissected first, followed by the hippocampus second, followed by the medial prefrontal cortex third, and lastly, the cerebellum fourth. After each region is dissected the dissected tissue was immediately placed into an eppendorf that was placed on dry ice for the previous 30 minutes. Small pieces of tissue froze very fast, within 10 seconds approximately. After all regions were placed in an eppendorf, the eppendorfs were then snap frozen by immersion into liquid nitrogen. The whole blood sample was collected from the trunk area using mitra tips. Tissue samples were stored in the −80° C. and mitra tips at room temperature. cGMP and compound levels in brain and blood were determined by LC/MS; protein quantification of brain samples was determined using BCA protein assay kit.
smiles,measurement,setting,value
"Fc1ccccc1Cc1nc(-c2nc(C(F)(F)F)n[nH]2)cn2ccnc12 [Compound I-1, 8-(2-fluorobenzyl)-6-(3-(trifluoromethyl)-1H-1,2,4-triazol-5-yl)imidazo[1,2-a]pyrazine]",CEREBELLUM nM cGMP/μg protein,0.3 MPK PO,0.3199 nM cGMP/μg protein
same,CORTEX nM cGMP/μg protein,0.3 MPK PO,0.07761 nM cGMP/μg protein
same,Hippocampus nM cGMP/μg protein,0.3 MPK PO,0.04255 nM cGMP/μg protein
same,STRIATUM nM cGMP/μg protein,0.3 MPK PO,0.02261 nM cGMP/μg protein
same,CEREBELLUM nM cGMP/μg protein,1 MPK PO,0.4577 nM cGMP/μg protein
same,CORTEX nM cGMP/μg protein,1 MPK PO,0.08064 nM cGMP/μg protein
same,Hippocampus nM cGMP/μg protein,1 MPK PO,0.04302 nM cGMP/μg protein
same,STRIATUM nM cGMP/μg protein,1 MPK PO,0.03124 nM cGMP/μg protein
same,CEREBELLUM nM cGMP/μg protein,3 MPK PO,0.7524 nM cGMP/μg protein
same,CORTEX nM cGMP/μg protein,3 MPK PO,0.1081 nM cGMP/μg protein
same,Hippocampus nM cGMP/μg protein,3 MPK PO,0.0519 nM cGMP/μg protein
same,STRIATUM nM cGMP/μg protein,3 MPK PO,0.03719 nM cGMP/μg protein
same,CEREBELLUM nM cGMP/μg protein,10 MPK PO,1.796**** nM cGMP/μg protein
same,CORTEX nM cGMP/μg protein,10 MPK PO,0.1734* nM cGMP/μg protein
same,Hippocampus nM cGMP/μg protein,10 MPK PO,0.1171** nM cGMP/μg protein
same,STRIATUM nM cGMP/μg protein,10 MPK PO,0.04612* nM cGMP/μg protein
